Experimental data published in US10301286B2, “Piperazine derivative” (Astellas Pharma Inc., priority 2015, dated 2019).
Where a name gives a salt, the structure may show the parent alone.

Experiments:
Type in all cases: cell-based
[1] = target: human MC4 receptor (Homo sapiens (Human), UniProt P32245); test: Human MC receptor activation, cAMP production in cells expressing human MC4 receptor; conditions: FreeStyle 293-F cells transiently expressing human MC4 receptor, α-MSH maximum = 100%
Text: (§1) (1) Construction of Human MC Receptor-Expressing Vector
(§2) A human MC4 receptor gene (GenBank Accession No.: NM_005912.2), a human MC1 receptor gene (GenBank Accession No.: NM_002386.3), or a human MC3 receptor gene (GenBank Accession No.: NM_019888.3) was introduced into an expression vector pcDNA™ 3.1/V5-His TOPO (registered trademark) (Thermo Fisher Scientific Inc.).
(§3) (2) Construction of Cells Transiently Expressing Human MC Receptor
(§4) An expression vector for a human MC4, MC1, or MC3 receptor was introduced into FreeStyle™ 293-F cell (Thermo Fisher Scientific Inc., product number: R790-07). For the introduction, electroporation was employed. That is, 1×10^7 FreeStyle™ 293-F cell were suspended in 80 μL of an electroporation buffer (Thermo Fisher Scientific Inc., product number: B201-100), and 20 μg of the expression vector was added thereto. The resultant was put into a cuvette (OC-100 Processing Assembly, MaxCyte, Inc.) and electroporated with MaxCyte SIX (registered trademark) (MaxCyte, Inc.). The cells were cultured over one day, suspended in a Cell Banker (registered trademark) 1 (JUJI FIELD Inc.), product number: BLC-1), and stored frozen until their use.
(§5) (3) Measurement of Amount of cAMP Produced
(§6) Measurement was carried out by using a LANCE (registered trademark) Ultra cAMP Kit (PerkinElmer, Inc.) in accordance with the attached instructions. That is, after dissolution in DMSO, the test compound (a final concentration of 1 pM to 30 μM) diluted with an assay buffer (Hank's balanced salt solution, 5 mM 4-(2-hydroxyethyl)-1-piperazineethanesulfonic acid (HEPES), 0.5 mM 3-isobutyl-1-methylxanthine (IBMX), 0.1% bovine serum albumin, pH 7.4), or α-MSH (Bachem Inc., a final concentration of 1 pM to 30 μM) was added to OptiPlate-384 (PerkinElmer, Inc.). Furthermore, a suspension of cells transiently expressing the human MC4, MC1, or MC3 receptor prepared by using the assay buffer was added thereto at 1,000 cells/well, followed by being left to stand at room temperature for about 1 hour. Thereafter, an Eu-cAMP tracer solution and an ULight™-anti-cAMP solution were added thereto, followed by being left to stand at room temperature for about 1 hour. The amount of cAMP was calculated using EnVision (registered trademark) (PerkinElmer Inc.).
(§7) For the agonistic activity, an efficacy (EC50 (μM)) was calculated by a non-linear regression method with a Sigmoid-Emax model, by defining the maximum reaction with α-MSH as 100% and the reaction with the vehicle alone as 0%, respectively.

[2] = target: human MC1 receptor (Homo sapiens (Human), UniProt Q01726); test: Human MC receptor activation, cAMP production in cells expressing human MC1 receptor; conditions: FreeStyle 293-F cells transiently expressing human MC1 receptor, α-MSH maximum = 100%
Chain of human MC1 receptor (Q01726 whole entry): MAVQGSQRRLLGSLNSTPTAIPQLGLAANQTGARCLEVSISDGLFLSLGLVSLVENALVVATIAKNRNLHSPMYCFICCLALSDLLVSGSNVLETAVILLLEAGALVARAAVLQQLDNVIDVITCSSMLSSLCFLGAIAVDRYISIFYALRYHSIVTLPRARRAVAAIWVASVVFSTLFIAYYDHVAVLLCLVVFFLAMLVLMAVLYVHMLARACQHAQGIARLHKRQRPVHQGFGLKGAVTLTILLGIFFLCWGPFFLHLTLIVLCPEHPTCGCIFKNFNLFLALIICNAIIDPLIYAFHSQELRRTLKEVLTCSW
Text: as §1, §2, §3, §4, §5, §6, §7

[3] = target: rat MC4 receptor (Rattus norvegicus (Rat), UniProt P70596); test: Rat MC4 receptor activation, cAMP production in cells expressing rat MC4 receptor; conditions: FreeStyle 293-F cells transiently expressing rat MC4 receptor, α-MSH maximum = 100%
Chain of rat MC4 receptor (P70596 whole entry): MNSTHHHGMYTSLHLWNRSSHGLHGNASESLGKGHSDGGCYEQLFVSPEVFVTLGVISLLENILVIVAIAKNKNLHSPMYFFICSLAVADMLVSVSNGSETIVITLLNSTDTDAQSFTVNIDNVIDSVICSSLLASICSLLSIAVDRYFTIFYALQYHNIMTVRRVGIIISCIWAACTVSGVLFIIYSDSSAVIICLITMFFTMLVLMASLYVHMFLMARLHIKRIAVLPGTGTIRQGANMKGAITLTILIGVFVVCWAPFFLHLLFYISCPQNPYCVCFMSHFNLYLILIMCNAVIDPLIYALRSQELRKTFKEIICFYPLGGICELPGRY
Text: (1) Construction of Rat MC4 Receptor-Expressing Vector
A rat MC4 receptor gene (GenBank Accession No.: NM_013099.2) was introduced into an expression vector pcDNA™ 3.1/V5-His TOPO (registered trademark) (Thermo Fisher Scientific Inc.).
(2) Construction of Cells Transiently Expressing Rat MC4 Receptor
as §4, with “rat MC4” for “human MC4, MC1, or MC3”, “Inc.).” for “Inc., product number: R790-07).”, “Inc.),” for “Inc., product number: B201-100),”, “STX” for “SIX”, “Inc.),” for “Inc.), product number: BLC-1),”, “until” for “until their”
as §5
Measurement was carried out in accordance with the attached instructions, using a LANCE (registered trademark) Ultra cAMP Kit (PerkinElmer, Inc.). That is, after dissolution in DMSO, the test compound (a final concentration of 1 pM to 30 μM) diluted with an assay buffer (Hank's balanced salt solution, 5 mM HEPES, 0.5 mM IBMX, 0.1% bovine serum albumin, pH 7.4), or α-MSH (Bachem Inc., a final concentration of 1 pM to 30 μM) was added to OptiPlate-384 (PerkinElmer, Inc.). Furthermore, a suspension of cells transiently expressing the rat MC4 receptor, that had been prepared using the assay buffer, was added thereto at 1,000 cells/well, followed by being left to stand at room temperature for about 1 hour. Thereafter, an Eu-cAMP tracer solution and an ULight™-anti-cAMP solution were added thereto, followed by being left to stand at room temperature for about 1 hour. The amount of cAMP was calculated using EnVision (registered trademark) (PerkinElmer Inc.).
as §7

Chain of human MC4 receptor (P32245 whole entry): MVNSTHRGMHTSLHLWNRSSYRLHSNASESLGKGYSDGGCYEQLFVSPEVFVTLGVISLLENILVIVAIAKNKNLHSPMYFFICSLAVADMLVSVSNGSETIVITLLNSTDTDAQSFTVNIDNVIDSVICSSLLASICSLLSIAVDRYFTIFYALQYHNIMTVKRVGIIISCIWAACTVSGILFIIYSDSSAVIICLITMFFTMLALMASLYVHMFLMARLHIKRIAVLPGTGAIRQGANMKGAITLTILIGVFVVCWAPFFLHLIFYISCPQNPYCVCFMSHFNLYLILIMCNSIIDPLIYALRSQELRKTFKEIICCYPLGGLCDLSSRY

Structure (SMILES)	EC50 [1]	EC50 [2]	EC50 [3]
Cc1ccc(C[C@@H](C(=O)O)N2CCN(C(=O)[C@@H]3CN(C4CCOCC4)C[C@H]3c3ccc(Cl)cc3F)[C@@H](C)C2)c(F)c1 [Example 87, (2S)-2-[(3S)-4-{[(3S,4R)-4-(4-chloro-2-fluorophenyl)-1-(tetrahydro-2H-pyran-4-yl)pyrrolidin-3-yl]carbonyl}-3-methylpiperazin-1-yl]-3-(2-fluoro-4-methylphenyl)propanoic acid dihydrochloride]	0.011 µM	1.1 µM	0.021 µM
CCC[C@H]1CN([C@@H](Cc2ccc3ccccc3c2)C(=O)O)CCN1C(=O)[C@@H]1CN(C(C)(C)C)C[C@H]1c1ccc(F)cc1F [Example 9]	0.0032 µM	0.39 µM	0.0026 µM
C[C@H]1CN([C@@H](Cc2ccc3c(c2)CCC3)C(=O)O)CCN1C(=O)[C@@H]1CN(C(C)(C)C)C[C@H]1c1ccc(F)cc1F [Example 5, (2S)-2-[(3S)-4-{[(3S,4R)-1-tert-butyl-4-(2,4-difluorophenyl)pyrrolidin-3-yl]carbonyl}-3-methylpiperazin-1-yl]-3-(2,3-dihydro-1H-inden-5-yl)propanoic acid dihydrochloride]	0.025 µM	1.3 µM	0.026 µM
Cc1ccc(C[C@@H](C(=O)O)N2CCN(C(=O)[C@@H]3CN(C(C)(C)C)C[C@H]3c3ccc(Cl)cc3F)[C@@H](C)C2)cc1 [Example 11]	0.017 µM	0.86 µM	0.021 µM
Cc1cc(C)c(C[C@@H](C(=O)O)N2CCN(C(=O)[C@@H]3CN(C4CCOCC4)C[C@H]3c3ccc(Cl)cc3F)[C@@H](C)C2)c(F)c1 [Example 88]	0.012 µM	2.7 µM	0.011 µM

Other lines, results leading:

EC50 [1]	EC50 [2]	EC50 [3]	Structure (SMILES)
0.00096 µM	0.1 µM	0.0017 µM	Cc1cc(F)c(C[C@@H](C(=O)O)N2CCN(C(=O)[C@@H]3CN(C(C)(C)C)C[C@H]3c3ccc(Cl)cc3F)[C@@H](C)C2)c(F)c1 [Example 76]
0.003 µM	1.3 µM	0.0031 µM	Cc1cc(C)c(C[C@@H](C(=O)O)N2CCN(C(=O)[C@@H]3CN(C(C)(C)C)C[C@H]3c3ccc(Cl)cc3F)[C@@H](C)C2)c(C)c1 [Example 89]
0.0015 µM	0.07 µM	0.0013 µM	Cc1ccc(C[C@@H](C(=O)O)N2CCN(C(=O)[C@@H]3CN(C(C)(C)C)C[C@H]3c3ccc(Cl)cc3F)[C@@H](C)C2)c(F)c1 [Example 4, (2S)-2-[(3S)-4-{[(3S,4R)-1-tert-butyl-4-(4-chloro-2-fluorophenyl)pyrrolidin-3-yl]carbonyl}-3-methylpiperazin-1-yl]-3-(2-fluoro-4-methylphenyl)propanoic acid dihydrochloride]
